Laboratory results: patent US11878973B2, “Bicyclic compounds and their uses” (NOVARTIS AG, priority 2021, dated 2024)
pIC50: −log10 of the molar value. Where two headings read alike, the source gives them in different places.

How the values were obtained:
SW48 cells = experiment: Proliferation assay SW48 (CellTiterGlo, 96 hours)
WRN helicase = WRN helicase (Homo sapiens (Human), UniProt Q14191); experiment: In vitro enzymatic activity assay on WRN helicase (DNA dependent ATPase assay, ADP-Glo); assay type: biochemical; conditions: geometric means of at least 2 determinations; read-out: WRN ATPase Activity (IC50)
Chain of WRN helicase (Q14191 517-1238): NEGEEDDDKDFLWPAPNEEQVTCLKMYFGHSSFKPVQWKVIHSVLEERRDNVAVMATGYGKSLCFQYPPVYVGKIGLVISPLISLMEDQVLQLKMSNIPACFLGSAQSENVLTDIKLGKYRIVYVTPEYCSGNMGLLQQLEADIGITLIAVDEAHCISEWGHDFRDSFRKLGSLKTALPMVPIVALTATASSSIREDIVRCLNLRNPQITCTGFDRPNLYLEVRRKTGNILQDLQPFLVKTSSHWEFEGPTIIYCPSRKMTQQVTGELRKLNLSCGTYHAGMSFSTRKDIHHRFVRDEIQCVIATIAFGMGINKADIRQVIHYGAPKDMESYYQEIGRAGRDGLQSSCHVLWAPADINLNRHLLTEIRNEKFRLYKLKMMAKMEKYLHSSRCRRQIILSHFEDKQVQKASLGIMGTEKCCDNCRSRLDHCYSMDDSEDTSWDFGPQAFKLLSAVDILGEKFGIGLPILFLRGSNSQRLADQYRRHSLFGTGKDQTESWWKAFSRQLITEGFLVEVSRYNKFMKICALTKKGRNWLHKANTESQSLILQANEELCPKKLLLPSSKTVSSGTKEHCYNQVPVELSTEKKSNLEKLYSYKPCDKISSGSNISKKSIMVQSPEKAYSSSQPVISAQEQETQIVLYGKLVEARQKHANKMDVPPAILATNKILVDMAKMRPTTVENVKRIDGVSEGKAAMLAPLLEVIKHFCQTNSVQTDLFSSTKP
Method in brief: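 DNA-dependent ATPase activity was measured by ADP-Glo luminescent ADP detection after a 30-min room-temperature reaction. The reaction contained 10 nM WRN (residues N517-P1238), 0.2 nM FLAP26 and 300 µM ATP at pH 7.5 with 2 mM MgCl2. Compounds were tested as 10-point half-log series in duplicate; IC50 values are geometric means from at least two independent experiments.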

DLD1-WRN-KO cells = experiment: Proliferation assay DLD1-WRN-KO (CellTiterGlo, 96 hours; off-target effects); conditions: read-out: Proliferation Assay DLD1-WRN-KO (GI50)
Description: The WRN-knockdown insensitive colon carcinoma cell line DLD-1 (RRID: CVCL_0248) was obtained from the Korean Cell Line Bank (KCLB), and used to generate a derivative in which the endogenous WRN gene copies were knocked out by CRISPR-mediated editing using standard CRISPR methods. The resulting cell line, DLD1-WRN—KO, was used to assess potential off-target compound effects.
All cells were maintained at 37° C. in a humidified 5% CO2 incubator.
For data analysis, the assay background signal that was determined in wells containing medium, but no cells, was subtracted from all other data points prior to further calculations. The extent of growth inhibition and potential cell kill was assessed by comparing the ATP levels (measured using CellTiterGlo, Promega) in compound-treated cells with those present at the time of compound addition. […] 100%, 0% and −100% signify absence of growth inhibition, growth stasis, and complete cell kill, respectively. Compound concentrations leading to half-maximal growth inhibition (G150) and residual cell viability at the highest tested compound concentration (Data (cmax), expressed in percent) were routinely calculated. Data analysis can also be carried out using commercially available software designed to derive IC50 values using 4-parameter fits (e.g. GraphPad Prism, XL fit). The reported GI50 values are the geometrical means of at least 2 independent replicates.

[1] = Homo sapiens, SW48, read-out: Proliferation Assay SW48 (GI50)
[2] = read-out: Proliferation Assay SW48 (GI50), SW48 cell line, geometric means of at least 2 determinations
[3] = DLD1-WRN-KO cell line, geometric means of at least 2 determinations

SMILES | GI50 (SW48 cells; [1]) [µM] | pIC50 (WRN helicase) | GI50 (DLD1-WRN-KO cells; Homo sapiens) [µM] | GI50 (SW48 cells; [2]) [µM] | GI50 (DLD1-WRN-KO cells; [3]) [µM]
CCc1c(N2CCN(C(=O)c3ncccc3O)CC2)c(=O)n2nc(N3CCC(N(C)CC(F)F)CC3)nc2n1CC(=O)Nc1ccc(C(F)(F)F)nc1Cl [Example 20, N-(2-chloro-6-(trifluoromethyl)pyridin-3-yl)-2-(2-(4-((2,2-difluoroethyl)(methyl)amino)piperidin-1-yl)-5-ethyl-6-(4-(3-hydroxypicolinoyl)piperazin-1-yl)-7-oxo-[1,2,4]triazolo[1,5-a]pyrimidin-4(7H)-yl)acetamide] | 0.1 | 6.51 | > 10 | – | –
CCc1c(N2CCN(C(=O)c3ncccc3O)CC2)c(=O)n2nc(C3=CC[C@H](OC)CC3)nc2n1CC(=O)Nc1ccc(C(F)(F)F)cc1 (single isomer, unassigned) [Example 81b, ((R)-2-(5-ethyl-6-(4-(3-hydroxypicolinoyl)piperazin-1-yl)-2-(4-methoxycyclohex-1-en-1-yl)-7-oxo-[1,2,4]triazolo[1,5-a]pyrimidin-4(7H)-yl)-N-(4-(trifluoromethyl)phenyl)acetamide or ((S)-2-(5-ethyl-6-(4-(3-hydroxypicolinoyl)piperazin-1-yl)-2-(4-methoxycyclohex-1-en-1-yl)-7-oxo-[1,2,4]triazolo[1,5-a]pyrimidin-4(7H)-yl)-N-(4-(trifluoromethyl)phenyl)acetamide] | – | 7.40 | – | 0.06 | > 10
CCc1c(N2CCN(C(=O)c3nccc(F)c3O)CC2)c(=O)n2nc(C3=CCOCC3)nc2n1CC(=O)Nc1ccc(C(F)(F)F)cc1Cl [Example 40, N-(2-chloro-4-(trifluoromethyl)phenyl)-2-(2-(3,6-dihydro-2H-pyran-4-yl)-5-ethyl-6-(4-(4-fluoro-3-hydroxypicolinoyl)piperazin-1-yl)-7-oxo-[1,2,4]triazolo[1,5-a]pyrimidin-4(7H)-yl)acetamide] | 0.03 | 7.70 | > 10 | – | –
CCc1c(N2CCN(C(=O)c3ncccc3O)CC2)c(=O)n2nc(C3=CC[C@H](OC)CC3)nc2n1CC(=O)Nc1ccc(C(F)(F)F)nc1Cl (single isomer, unassigned) [Example 25b, ((R)—N-(2-chloro-6-(trifluoromethyl)pyridin-3-yl)-2-(5-ethyl-6-(4-(3-hydroxypicolinoyl)piperazin-1-yl)-2-(4-methoxycyclohex-1-en-1-yl)-7-oxo-[1,2,4]triazolo[1,5-a]pyrimidin-4(7H)-yl)acetamide) or ((S)—N-(2-chloro-6-(trifluoromethyl)pyridin-3-yl)-2-(5-ethyl-6-(4-(3-hydroxypicolinoyl)piperazin-1-yl)-2-(4-methoxycyclohex-1-en-1-yl)-7-oxo-[1,2,4]triazolo[1,5-a]pyrimidin-4(7H)-yl)acetamide)] | – | 7.00 | – | 0.05 | > 10
CCc1c(N2CCN(C(=O)c3ncnc(C)c3O)CC2)c(=O)n2nc(C3=CCOCC3)nc2n1CC(=O)Nc1ccc(C(F)(F)F)cc1Br [Example 108, N-(2-bromo-4-(trifluoromethyl)phenyl)-2-(2-(3,6-dihydro-2H-pyran-4-yl)-5-ethyl-6-(4-(5-hydroxy-6-methylpyrimidine-4-carbonyl)piperazin-1-yl)-7-oxo-[1,2,4]triazolo[1,5-a]pyrimidin-4(7H)-yl)acetamide] | 0.09 | 7.10 | > 10 | – | –
CCc1c(N2CCN(C(=O)c3ncccc3O)CC2)c(=O)n2nc(N3CCC[C@H](F)C3)nc2n1CC(=O)Nc1ccc(C(F)(F)F)cc1C [Example 14b, (S)-2-(5-ethyl-2-(3-fluoropiperidin-1-yl)-6-(4-(3-hydroxypicolinoyl)piperazin-1-yl)-7-oxo-[1,2,4]triazolo[1,5-a]pyrimidin-4(7H)-yl)-N-(2-methyl-4-(trifluoromethyl)phenyl)acetamide] | 0.26 | 7.05 | > 10 | – | –
CCc1c(N2CCN(C(=O)c3nccc(Cl)c3O)CC2)c(=O)n2nc(C3=CCOCC3)nc2n1CC(=O)Nc1ccc(C(F)(F)F)nc1Cl [Example 46, 2-(6-(4-(4-chloro-3-hydroxypicolinoyl)piperazin-1-yl)-2-(3,6-dihydro-2H-pyran-4-yl)-5-ethyl-7-oxo-[1,2,4]triazolo[1,5-a]pyrimidin-4(7H)-yl)-N-(2-chloro-6-(trifluoromethyl)pyridin-3-yl)acetamide] | 0.11 | 6.96 | > 10 | – | –
CCc1c(N2CCN(C(=O)c3ncccc3O)CC2)c(=O)n2nc(C3=CCCCO3)nc2n1CC(=O)Nc1ccc(C(F)(F)F)cc1 [Example 84, 2-(2-(3,4-dihydro-2H-pyran-6-yl)-5-ethyl-6-(4-(3-hydroxypicolinoyl)piperazin-1-yl)-7-oxo-[1,2,4]triazolo[1,5-a]pyrimidin-4(7H)-yl)-N-(4-(trifluoromethyl)phenyl)acetamide] | 0.13 | 7.30 | > 10 | – | –
Cc1cc(C(F)(F)F)ccc1NC(=O)Cn1c(CCO)c(N2CCN(C(=O)c3ncccc3O)CC2)c(=O)n2nc(C3=CCOCC3)nc12 [Example 135, 2-(2-(3,6-dihydro-2H-pyran-4-yl)-5-(2-hydroxyethyl)-6-(4-(3-hydroxypicolinoyl)piperazin-1-yl)-7-oxo-[1,2,4]triazolo[1,5-a]pyrimidin-4(7H)-yl)-N-(2-methyl-4-(trifluoromethyl)phenyl)acetamide] | 0.28 | 6.89 | > 10 | – | –
CCc1c(N2CCN(C(=O)c3ncccc3O)CC2)c(=O)n2nc(C3=CCNCC3)nc2n1CC(=O)Nc1ccc(C(F)(F)F)cc1C [Example 112, 2-(5-ethyl-6-(4-(3-hydroxypicolinoyl)piperazin-1-yl)-7-oxo-2-(1,2,3,6-tetrahydropyridin-4-yl)-[1,2,4]triazolo[1,5-a]pyrimidin-4(7H)-yl)-N-(2-methyl-4-(trifluoromethyl)phenyl)acetamide] | 7.94 | 6.29 | > 10 | – | –
CCc1c(N2CCN(C(=O)c3ncccc3O)CC2)c(=O)n2nc(N3CCCC(F)C3)nc2n1CC(=O)Nc1ccc(C(F)(F)F)nc1Cl (racemic) [Example 16, rac-N-(2-chloro-6-(trifluoromethyl)pyridin-3-yl)-2-(5-ethyl-2-(3-fluoropiperidin-1-yl)-6-(4-(3-hydroxypicolinoyl)piperazin-1-yl)-7-oxo-[1,2,4]triazolo[1,5-a]pyrimidin-4(7H)-yl)acetamide] | 0.32 | 6.64 | > 10 | – | –
CCc1c(N2CCN(C(=O)c3nccc(C)c3O)CC2)c(=O)n2nc(C3=CCOCC3)nc2n1CC(=O)Nc1ccc(C(F)(F)F)cc1 [Example 75, 2-(2-(3,6-dihydro-2H-pyran-4-yl)-5-ethyl-6-(4-(3-hydroxy-4-methylpicolinoyl)piperazin-1-yl)-7-oxo-[1,2,4]triazolo[1,5-a]pyrimidin-4(7H)-yl)-N-(4-(trifluoromethyl)phenyl)acetamide] | 0.08 | 7.30 | > 10 | – | –
CCc1c(N2CCN(C(=O)c3ncnc(C)c3O)CC2)c(=O)n2nc(C3=CCOCC3)nc2n1CC(=O)Nc1cc(F)c(C(F)(F)F)cc1C [Example 50, 2-(2-(3,6-dihydro-2H-pyran-4-yl)-5-ethyl-6-(4-(5-hydroxy-6-methylpyrimidine-4-carbonyl)piperazin-1-yl)-7-oxo-[1,2,4]triazolo[1,5-a]pyrimidin-4(7H)-yl)-N-(5-fluoro-2-methyl-4-(trifluoromethyl)phenyl)acetamide] | 0.05 | 7.52 | > 10 | – | –
CCc1c(N2CCN(C(=O)c3nccc(Cl)c3O)CC2)c(=O)n2nc(C3=CCOCC3)nc2n1CC(=O)Nc1ccc(C(F)(F)F)cc1Cl [Example 39, 2-(6-(4-(4-chloro-3-hydroxypicolinoyl)piperazin-1-yl)-2-(3,6-dihydro-2H-pyran-4-yl)-5-ethyl-7-oxo-[1,2,4]triazolo[1,5-a]pyrimidin-4(7H)-yl)-N-(2-chloro-4-(trifluoromethyl)phenyl)acetamide] | 0.05 | 7.40 | > 10 | – | –
CCc1c(N2CCN(C(=O)c3ncccc3O)CC2)c(=O)n2nc(N3CCN(CC(=O)O)CC3)nc2n1CC(=O)Nc1ccc(C(F)(F)F)cc1Cl [Example 82, 2-(4-(4-(2-((2-chloro-4-(trifluoromethyl)phenyl)amino)-2-oxoethyl)-5-ethyl-6-(4-(3-hydroxypicolinoyl)piperazin-1-yl)-7-oxo-4,7-dihydro-[1,2,4]triazolo[1,5-a]pyrimidin-2-yl)piperazin-1-yl)acetic acid] | 7.72 | 6.55 | > 10 | – | –
CCc1c(N2CCN(C(=O)c3ncccc3O)CC2)c(=O)n2nc(C3=CC[C@H](OC)CC3)nc2n1CC(=O)Nc1ccc(C(F)(F)F)nc1Cl (single isomer, unassigned) [Example 25a, ((R)—N-(2-chloro-6-(trifluoromethyl)pyridin-3-yl)-2-(5-ethyl-6-(4-(3-hydroxypicolinoyl)piperazin-1-yl)-2-(4-methoxycyclohex-1-en-1-yl)-7-oxo-[1,2,4]triazolo[1,5-a]pyrimidin-4(7H)-yl)acetamide) or ((S)—N-(2-chloro-6-(trifluoromethyl)pyridin-3-yl)-2-(5-ethyl-6-(4-(3-hydroxypicolinoyl)piperazin-1-yl)-2-(4-methoxycyclohex-1-en-1-yl)-7-oxo-[1,2,4]triazolo[1,5-a]pyrimidin-4(7H)-yl)acetamide)] | – | 6.80 | – | 0.05 | > 10
